Target: T1, BTK protein (Homo sapiens, UniProt Q06187)
T1 construct: endogenous in cells; host or cells: TMD-8 cells
Assay: Measurement of BTK protein degradation ability in TMD-8 cells (Western blotting)
Format: cell-based
Conditions: harvested after 24 hours; for BTK degradation (%) 1 nM: compound 1 nM; for BTK degradation (%) 10 nM: compound 10 nM; for BTK degradation (%) 100 nM: compound 100 nM
Description: TMD-8, RAMOS, or 293T BTK MUT (C481S) cells were treated with the synthesized compounds, and then the amount of BTK protein present in the cells was measured using Western blotting detection. The protocol for the experiment conducted using TMD-8 cells was as follows:
[Culture] TMD-8 cells were resuspended in RPMI1640 MEDIUM (Hyclone, SH30027.01), 10% FBS (Hyclone, SV30207.02), and 1% Penicillin-streptomycin (Welgene, LS 202-02) media, and 1 mL of this suspension was seeded in a 12-well plate at a cell concentration of 1×10^6/mL.
[Compound treatment] The 12-well plate was treated as follows: The 10 mM stock was serially diluted 1/10 with DMSO (3 μL+27 μL DMSO), and cells were treated with compounds at final concentrations of 0.1, 1, 10 μM or 0.0001, 0.001, 0.01, 0.1 μM, and harvested after 24 hours. In the negative control group, DMSO diluted 1/10 was added to the media. (3 μL DMSO+27 μL media)
[Harvest] Each well was pipetted with a 1 mL pipette, collected in a 1.5 mL microtube, and centrifuged (500 g, 5 min, 4° C.). After removing the supernatant, it was washed with PBS and centrifuged again (500 g, 5 min, 4° C.). The supernatant was removed and the pellet was collected.
[Cell lysis and Sample preparation] lysis buffer was prepared as follows: RIPA buffer (Biosesang, RC2038-050-00), 0.5 mM PMSF (SIGMA, P7626) and 1× Protease/Phosphatase Inhibitor (Cell signaling, 5872S) were added at 60-70 μL per well and left on ice for 30 minutes. (Vortexing at 0 and 30 minutes, respectively), followed by sonication (10 seconds pulse, 30 seconds rest, 5 cycles, 70% amplification) and centrifuge (15000 g, 15 min, 4° C.). Only the supernatant was collected and transferred to a new microtube. The samples were diluted by ½ with RIPA buffer in a 96-well plate. 200 μL of the mixture A:B=50:1 of the BCA Protein Assay Kit (iNtRON, 21071) was added each, stayed at 37° C. for 30 minutes, and cooled for 10 minutes. Afterwards, absorbance was measured at 562 nm using BioTek's SYNERGY H1 microplate reader. After making a sample by quantifying the protein using the measured value, it was boiled at 70° C. for 10 minutes. The sample buffer used at this time was a mixture of NuPAGE or Bolt 4× sample buffer (Invitrogen) and each 10× sample reducing agent according to the gel to be used. RIPA buffer was used for protein dilution.
[Western blotting detection method] The same amount of sample was loaded on NuPAGE or Bolt Bis-tris 4-12% gradient gel and run (200 V, 35 minutes). It was transferred to a […] NC membrane using Trans-blot Turbo (BIO-RAD) (1.3 A constant, 25 V limit, 15 minutes). For blocking, skim milk or Intercept Blocking Buffer (LI-COR, 927-60001): 0.1% TBST=1:1 was used at room temperature for 1 hour. Anti BTK Rabbit (1:1,000 in 5% skim milk/0.2% TBST, size: 77 kDa, Cell signaling Technology) was reacted at 4° C. for 16 hours or at room temperature for 2 hours. Anti GAPDH Rabbit (1:10,000 in 5% BSA/0.2% TBST, size: 36 kDa, GENETEX) and Anti β-actin mouse (1:10,000 in 5% BSA/0.2% TBST, RT, size: 43 kDa, GENETEX) were reacted at room temperature for 1 hour or 3 hours. The samples were washed 3 times with 0.5% TBST for 5 minutes each. Secondary antibodies, Anti-Rabbit IgG (1:5,000 in 5% Skim milk/TBST, CST), IRDye® 800CW Goat anti-Rabbit IgG Secondary Antibody (1:10,000 in 5% skim/TBST, RT 45 min), IRDye® 680RD Goat anti-Mouse IgG Secondary Antibody (1:10,000 in 5% skim/TBST, RT 45 min) were added depending on each sample and reacted for 45 minutes on a rocker at room temperature. The samples were washed 5 times with 0.5% TBST for 5 minutes each and detected with LI-COR's Odyssey. At this time, BTK was detected using SuperSignal West Pico PLUS Chemiluminescent Substrate or SuperSignal West femto Maximum Sensitivity Substrate, and house-keeping genes were detected as is.

T1 sequence (Q06187 whole entry): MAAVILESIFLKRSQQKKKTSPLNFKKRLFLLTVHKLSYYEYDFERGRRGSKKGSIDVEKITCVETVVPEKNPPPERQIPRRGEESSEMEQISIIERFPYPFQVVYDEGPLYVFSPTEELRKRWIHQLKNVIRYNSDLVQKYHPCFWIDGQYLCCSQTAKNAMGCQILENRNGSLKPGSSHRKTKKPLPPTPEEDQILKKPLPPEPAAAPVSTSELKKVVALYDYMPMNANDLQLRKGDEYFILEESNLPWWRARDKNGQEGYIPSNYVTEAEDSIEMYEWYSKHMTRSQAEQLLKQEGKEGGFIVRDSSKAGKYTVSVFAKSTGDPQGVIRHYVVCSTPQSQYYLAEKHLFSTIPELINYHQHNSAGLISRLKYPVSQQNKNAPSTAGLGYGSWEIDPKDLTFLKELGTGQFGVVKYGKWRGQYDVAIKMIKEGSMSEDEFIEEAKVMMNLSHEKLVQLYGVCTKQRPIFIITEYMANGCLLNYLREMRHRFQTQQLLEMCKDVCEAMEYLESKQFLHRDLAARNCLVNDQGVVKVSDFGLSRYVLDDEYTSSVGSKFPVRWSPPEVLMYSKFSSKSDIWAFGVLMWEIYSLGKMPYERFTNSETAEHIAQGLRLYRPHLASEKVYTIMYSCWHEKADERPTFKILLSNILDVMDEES

| SMILES | BTK degradation (%) 1 nM [%] | BTK degradation (%) 10 nM [%] | BTK degradation (%) 100 nM [%] |
| --- | --- | --- | --- |
| Cc1cc(-c2ccnc(Nc3ccc(N4CCC(CN5CCC(c6ccc(NC7CCC(=O)NC7=O)cc6)CC5)CC4)cc3)n2)ccc1CNC(=O)c1cnn(C(C)C)c1 (centres unmarked) [Example 134, N-(4-(2-((4-(4-((4-(4-((2,6-dioxopiperidin-3-yl)amino)phenyl)piperidin-1-yl)methyl)piperidin-1-yl)phenyl)amino)pyrimidin-4-yl)-2-methylbenzyl)-1-isopropyl-1H-pyrazole-4-carboxamide] | 58.5 | 93.5 | 98.5 |
| Cc1cc(-c2ccnc(Nc3ccc(N4CCN(CC5CN(c6ccc7c(c6)C(=O)N(C6CCC(=O)NC6=O)C7=O)C5)CC4)nc3)n2)ccc1CNC(=O)N1CC(OC(C)C)C1 (centres unmarked) [Example 18, N-(4-(2-((6-(4-((1-(2-(2,6-dioxopiperidin-3-yl)-1,3-dioxoisoindolin-5-yl)azetidin-3-yl)methyl)piperazin-1-yl)pyridin-3-yl)amino)pyrimidin-4-yl)-2-methylbenzyl)-3-isopropoxyazetidine-1-carboxamide] | 46 | 92 | 98.5 |
| Cc1c(NC(=O)N2CC(OC(C)C)C2)cc(F)cc1-c1ccnc(Nc2ccc(N3CCN(CC4CCN(c5ccc6c(c5)C(=O)N(C5CCC(=O)NC5=O)C6=O)CC4)CC3)cc2)n1 (centres unmarked) [Example 23, N-(3-(2-((4-(4-((1-(2-(2,6-dioxopiperidin-3-yl)-1,3-dioxoisoindolin-5-yl)piperidin-4-yl)methyl)piperazin-1-yl)phenyl)amino)pyrimidin-4-yl)-5-fluoro-2-methylphenyl)-3-isopropoxyazetidine-1-carboxamide] |  | 72 | 91.5 |
| Cc1cc(-c2ccnc(Nc3ccc(N4CCC(CN5CCN(c6ccc(OC7CCC(=O)NC7=O)cn6)CC5)CC4)cc3)n2)ccc1CNC(=O)N1CC(OC(C)C)C1 (centres unmarked) [Example 125, N-(4-(2-((4-(4-((4-(5-((2,6-dioxopiperidin-3-yl)oxy)pyridin-2-yl)piperazin-1-yl)methyl)piperidin-1-yl)phenyl)amino)pyrimidin-4-yl)-2-methylbenzyl)-3-isopropoxyazetidine-1-carboxamide] | 14.7 | 85.0 | 99.3 |
| Cc1cc(-c2ccnc(Nc3ccc(N4CCC(CN5CCC(c6ccc(NC7CCC(=O)NC7=O)cn6)CC5)CC4)cc3)n2)ccc1CNC(=O)c1cn(C(C)(C)C)nn1 (centres unmarked) [Example 132, 1-(tert-butyl)-N-(4-(2-((4-(4-((4-(5-((2,6-dioxopiperidin-3-yl)amino)pyridin-2-yl)piperidin-1-yl)methyl)piperidin-1-yl)phenyl)amino)pyrimidin-4-yl)-2-methylbenzyl)-1H-1,2,3-triazole-4-carboxamide] | 54.5 | 95.5 | 100.0 |
| Cc1cc(-c2ccnc(Nc3ccc(CN4CCN(CC5CCN(c6cccc(NC7CCC(=O)NC7=O)c6)CC5)CC4)cc3)n2)ccc1CNC(=O)c1cn(C(C)(C)C)nn1 (centres unmarked) [Example 69, 1-(tert-butyl)-N-(4-(2-((4-((4-((1-(3-((2,6-dioxopiperidin-3-yl)amino)phenyl)piperidin-4-yl)methyl)piperazin-1-yl)methyl)phenyl)amino)pyrimidin-4-yl)-2-methylbenzyl)-1H-1,2,3-triazole-4-carboxamide] | 61.5 | 95.0 | 99.5 |
| Cc1cc(-c2ccnc(Nc3ccc(N4CCN(CC5CCN(c6ccc(OC7CCC(=O)NC7=O)cn6)CC5)CC4)cc3)n2)ccc1CNC(=O)N1CC(OC(C)C)C1 (centres unmarked) [Example 50, N-(4-(2-((4-(4-((1-(5-((2,6-dioxopiperidin-3-yl)oxy)pyridin-2-yl)piperidin-4-yl)methyl)piperazin-1-yl)phenyl)amino)pyrimidin-4-yl)-2-methylbenzyl)-3-isopropoxyazetidine-1-carboxamide] | 19.7 | 82.0 | 99.3 |
| Cc1cc(-c2ccnc(Nc3ccc(C4CCN(CC5CCN(c6ccc(OC7CCC(=O)NC7=O)cc6)CC5)CC4)cc3)n2)ccc1CNC(=O)c1cnn(C(C)C)c1 (centres unmarked) [Example 49, N-(4-(2-((4-(1-((1-(4-((2,6-dioxopiperidin-3-yl)oxy)phenyl)piperidin-4-yl)methyl)piperidin-4-yl)phenyl)amino)pyrimidin-4-yl)-2-methylbenzyl)-1-isopropyl-1H-pyrazole-4-carboxamide] | 23.0 | 87.0 | 90.5 |

Second part, the molecule after the results:

| BTK degradation (%) 1 nM [%] | BTK degradation (%) 10 nM [%] | BTK degradation (%) 100 nM [%] | SMILES |
| --- | --- | --- | --- |
| 35 | 91.5 | 98 | Cc1cc(-c2ccnc(Nc3ccc(N4CCN(CC5CCN(CC(=O)Nc6cccc(NC7CCC(=O)NC7=O)c6)CC5)CC4)cc3)n2)ccc1CNC(=O)N1CC(OC(C)C)C1 (centres unmarked) [Example 105, N-(4-(2-((4-(4-((1-(2-((3-((2,6-dioxopiperidin-3-yl)amino)phenyl)amino)-2-oxoethyl)piperidin-4-yl)methyl)piperazin-1-yl)phenyl)amino)pyrimidin-4-yl)-2-methylbenzyl)-3-isopropoxyazetidine-1-carboxamide] |
| 41.5 | 94.0 | 99.5 | Cc1cc(-c2ccnc(Nc3ccc(N4CCN(C5CCN(c6ccc7c(c6)C(=O)N(C6CCC(=O)NC6=O)C7=O)CC5)CC4)cc3)n2)ccc1CNC(=O)N1CC(OC(C)C)C1 (centres unmarked) [Example 109, N-(4-(2-((4-(4-(1-(2-(2,6-dioxopiperidin-3-yl)-1,3-dioxoisoindolin-5-yl)piperidin-4-yl)piperazin-1-yl)phenyl)amino)pyrimidin-4-yl)-2-methylbenzyl)-3-isopropoxyazetidine-1-carboxamide] |
| −12.5 | 69.0 | 97.0 | Cc1cc(-c2ccnc(Nc3ccc(N4CCN(C5CCN(C(=O)c6cccc(NC7CCC(=O)NC7=O)c6)CC5)CC4)cc3)n2)ccc1CNC(=O)N1CC(OC(C)C)C1 (centres unmarked) [Example 103, N-(4-(2-((4-(4-(1-(3-((2,6-dioxopiperidin-3-yl)amino)benzoyl)piperidin-4-yl)piperazin-1-yl)phenyl)amino)pyrimidin-4-yl)-2-methylbenzyl)-3-isopropoxyazetidine-1-carboxamide] |
| 67.5 | 94.5 | 98.0 | Cc1cc(-c2ccnc(Nc3ccc(N4CCN(CC5CCN(C(=O)c6cccc(NC7CCC(=O)NC7=O)c6)CC5)CC4)cc3)n2)ccc1CNC(=O)c1cnn(C(C)(C)C)c1 (centres unmarked) [Example 95, 1-(tert-butyl)-N-(4-(2-((4-(4-((1-(3-((2,6-dioxopiperidin-3-yl)amino)benzoyl)piperidin-4-yl)methyl)piperazin-1-yl)phenyl)amino)pyrimidin-4-yl)-2-methylbenzyl)-1H-pyrazole-4-carboxamide] |

Reference: patent publication US20250041429A1, “COMPOUND HAVING BTK PROTEIN DEGRADATION ACTIVITY, AND MEDICAL USES THEREOF” (UBIX THERAPEUTICS, INC., priority 2021, published 2025)
